pIC50: −log10 of the molar value. Where a name gives a salt, the structure may show the parent alone.
Assays:
Format in all cases: cell-based
mTOR = mTOR (Homo sapiens (Human), UniProt P42345); test: Assay d) mTOR cellular potency assay (phospho-AKT Ser473 in MDA-MB-468 cells); conditions: MDA-MB-468 cells, phospho-AKT Ser473, 2 h; geometric mean where repeated; read-out: Assay d) mTOR Cell IC50
PI3K-α = PI3K-α (Homo sapiens, UniProt P42336); test: Assay c) PI3K cellular potency assay (phospho-Akt T308 ELISA in BT474 cells); conditions: BT474 cells, phospho-Akt T308, 2 h; geometric mean where repeated; read-out: Assay c) PI3Kα Cell IC50
PI3K-α, sequence (P42336 whole entry, looked up): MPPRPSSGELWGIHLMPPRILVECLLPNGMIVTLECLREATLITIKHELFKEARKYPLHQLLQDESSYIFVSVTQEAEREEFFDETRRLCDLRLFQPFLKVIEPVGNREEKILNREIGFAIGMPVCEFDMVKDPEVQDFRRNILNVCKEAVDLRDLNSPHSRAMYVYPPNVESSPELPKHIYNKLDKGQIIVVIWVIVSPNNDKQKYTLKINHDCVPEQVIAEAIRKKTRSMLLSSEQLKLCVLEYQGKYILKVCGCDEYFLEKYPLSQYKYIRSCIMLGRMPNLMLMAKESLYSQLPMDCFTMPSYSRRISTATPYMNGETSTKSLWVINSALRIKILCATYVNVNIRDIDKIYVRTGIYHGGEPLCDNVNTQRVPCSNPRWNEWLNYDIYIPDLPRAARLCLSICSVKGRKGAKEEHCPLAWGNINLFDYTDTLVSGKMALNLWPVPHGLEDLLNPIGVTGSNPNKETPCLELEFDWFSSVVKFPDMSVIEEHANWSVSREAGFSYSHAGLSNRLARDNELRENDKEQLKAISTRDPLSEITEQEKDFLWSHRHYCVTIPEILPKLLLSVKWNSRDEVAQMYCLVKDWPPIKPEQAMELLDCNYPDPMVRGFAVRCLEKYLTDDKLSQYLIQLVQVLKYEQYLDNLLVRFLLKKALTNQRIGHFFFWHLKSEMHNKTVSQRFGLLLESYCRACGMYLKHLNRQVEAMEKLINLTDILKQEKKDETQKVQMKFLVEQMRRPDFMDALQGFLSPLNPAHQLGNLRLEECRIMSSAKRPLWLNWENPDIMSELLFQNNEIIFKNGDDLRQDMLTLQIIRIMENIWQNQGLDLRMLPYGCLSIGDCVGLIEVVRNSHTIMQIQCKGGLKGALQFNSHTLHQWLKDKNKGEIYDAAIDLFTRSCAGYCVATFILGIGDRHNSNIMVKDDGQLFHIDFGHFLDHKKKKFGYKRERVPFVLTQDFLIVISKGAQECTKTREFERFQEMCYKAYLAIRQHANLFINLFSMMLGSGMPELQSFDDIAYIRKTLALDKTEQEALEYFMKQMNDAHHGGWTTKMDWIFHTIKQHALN

ATM kinase = ATM kinase (Homo sapiens (Human), UniProt Q13315); test: Assay a) ATM cellular potency assay (pATM Ser1981 in X-ray irradiated HT29 cells); conditions: HT29 cells, pATM Ser1981 after X-ray irradiation; geometric mean where repeated; read-out: Assay a) ATM Cell IC50
ATM kinase, sequence (Q13315 whole entry): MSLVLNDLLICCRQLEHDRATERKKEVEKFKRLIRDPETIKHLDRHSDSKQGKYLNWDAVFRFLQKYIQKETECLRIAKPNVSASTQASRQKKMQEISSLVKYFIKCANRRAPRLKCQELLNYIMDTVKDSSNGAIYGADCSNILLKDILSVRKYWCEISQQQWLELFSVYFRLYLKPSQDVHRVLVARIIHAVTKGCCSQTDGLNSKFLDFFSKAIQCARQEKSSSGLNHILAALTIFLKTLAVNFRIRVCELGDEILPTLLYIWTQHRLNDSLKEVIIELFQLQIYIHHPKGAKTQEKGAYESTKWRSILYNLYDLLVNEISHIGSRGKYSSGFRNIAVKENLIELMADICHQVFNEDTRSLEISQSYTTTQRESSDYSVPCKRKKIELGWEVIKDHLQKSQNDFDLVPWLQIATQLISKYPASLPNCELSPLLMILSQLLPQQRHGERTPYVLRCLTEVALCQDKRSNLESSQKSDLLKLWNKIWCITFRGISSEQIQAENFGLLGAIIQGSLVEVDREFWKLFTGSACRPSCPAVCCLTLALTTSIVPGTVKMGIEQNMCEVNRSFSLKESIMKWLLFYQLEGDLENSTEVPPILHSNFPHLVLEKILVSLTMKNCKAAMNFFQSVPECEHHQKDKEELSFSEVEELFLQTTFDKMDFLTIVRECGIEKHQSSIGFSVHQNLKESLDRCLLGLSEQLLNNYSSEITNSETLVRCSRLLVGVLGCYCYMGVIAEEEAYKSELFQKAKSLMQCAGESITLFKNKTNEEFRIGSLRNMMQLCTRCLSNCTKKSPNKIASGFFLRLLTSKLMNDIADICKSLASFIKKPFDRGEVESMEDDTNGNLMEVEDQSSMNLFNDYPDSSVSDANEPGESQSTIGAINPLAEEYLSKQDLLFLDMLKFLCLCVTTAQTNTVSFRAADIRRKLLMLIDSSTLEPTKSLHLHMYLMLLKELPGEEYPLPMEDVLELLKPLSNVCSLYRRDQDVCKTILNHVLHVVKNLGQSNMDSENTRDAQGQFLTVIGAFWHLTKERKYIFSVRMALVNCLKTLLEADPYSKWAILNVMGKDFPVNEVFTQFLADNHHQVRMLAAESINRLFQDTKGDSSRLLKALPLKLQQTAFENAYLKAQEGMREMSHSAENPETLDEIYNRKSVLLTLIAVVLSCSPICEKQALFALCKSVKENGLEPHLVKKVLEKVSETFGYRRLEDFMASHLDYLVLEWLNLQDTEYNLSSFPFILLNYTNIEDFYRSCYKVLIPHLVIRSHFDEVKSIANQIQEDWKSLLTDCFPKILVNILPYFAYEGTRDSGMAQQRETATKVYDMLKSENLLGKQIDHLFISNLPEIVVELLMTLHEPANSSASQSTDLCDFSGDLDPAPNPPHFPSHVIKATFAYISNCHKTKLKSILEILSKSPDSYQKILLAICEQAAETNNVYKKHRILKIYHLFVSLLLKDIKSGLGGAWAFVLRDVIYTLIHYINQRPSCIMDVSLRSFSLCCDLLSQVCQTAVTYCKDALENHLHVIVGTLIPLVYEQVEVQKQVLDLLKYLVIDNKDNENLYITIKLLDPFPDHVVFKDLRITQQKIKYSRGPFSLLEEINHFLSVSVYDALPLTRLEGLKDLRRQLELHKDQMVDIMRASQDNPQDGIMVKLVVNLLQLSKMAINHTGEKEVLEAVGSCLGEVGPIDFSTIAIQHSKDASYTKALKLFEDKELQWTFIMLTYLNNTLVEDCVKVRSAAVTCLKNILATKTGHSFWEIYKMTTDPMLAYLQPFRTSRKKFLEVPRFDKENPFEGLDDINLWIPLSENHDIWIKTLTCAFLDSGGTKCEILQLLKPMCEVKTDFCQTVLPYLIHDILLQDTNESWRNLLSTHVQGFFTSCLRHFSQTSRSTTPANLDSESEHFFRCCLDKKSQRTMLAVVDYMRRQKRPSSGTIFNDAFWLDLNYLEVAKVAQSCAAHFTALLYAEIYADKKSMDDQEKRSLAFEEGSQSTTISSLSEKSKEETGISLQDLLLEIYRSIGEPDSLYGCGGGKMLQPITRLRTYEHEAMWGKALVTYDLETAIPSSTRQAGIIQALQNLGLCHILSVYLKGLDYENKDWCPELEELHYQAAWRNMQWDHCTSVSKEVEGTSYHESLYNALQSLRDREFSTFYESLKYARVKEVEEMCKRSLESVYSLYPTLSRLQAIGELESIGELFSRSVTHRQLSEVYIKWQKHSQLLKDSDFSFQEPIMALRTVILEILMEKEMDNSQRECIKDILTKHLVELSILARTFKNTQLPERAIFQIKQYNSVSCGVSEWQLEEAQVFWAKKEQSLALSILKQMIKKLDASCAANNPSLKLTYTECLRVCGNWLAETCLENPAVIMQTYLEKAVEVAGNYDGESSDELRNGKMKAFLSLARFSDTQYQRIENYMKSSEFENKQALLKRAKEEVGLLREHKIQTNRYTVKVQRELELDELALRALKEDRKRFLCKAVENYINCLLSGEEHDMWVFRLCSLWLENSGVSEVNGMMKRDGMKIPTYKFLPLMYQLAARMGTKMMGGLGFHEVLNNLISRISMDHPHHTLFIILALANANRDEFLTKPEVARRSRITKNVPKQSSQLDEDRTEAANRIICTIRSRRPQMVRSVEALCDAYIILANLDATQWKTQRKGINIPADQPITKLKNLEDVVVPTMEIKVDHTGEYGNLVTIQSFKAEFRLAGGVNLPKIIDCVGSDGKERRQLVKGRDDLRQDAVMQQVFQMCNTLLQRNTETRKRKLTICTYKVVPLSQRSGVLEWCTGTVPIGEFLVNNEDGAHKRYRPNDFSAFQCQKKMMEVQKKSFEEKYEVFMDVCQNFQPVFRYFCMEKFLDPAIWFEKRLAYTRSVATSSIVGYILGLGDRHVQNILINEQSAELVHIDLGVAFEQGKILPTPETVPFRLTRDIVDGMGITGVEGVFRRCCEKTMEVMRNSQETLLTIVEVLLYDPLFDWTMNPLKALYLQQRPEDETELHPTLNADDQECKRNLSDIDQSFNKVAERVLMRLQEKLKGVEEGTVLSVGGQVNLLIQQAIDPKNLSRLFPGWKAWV

ATR kinase = ATR kinase (Homo sapiens (Human), UniProt Q13535); test: Assay b) ATR cellular potency assay (pChk1 Ser345 in HT29 cells treated with 4NQO); conditions: HT29 cells, pChk1 Ser345 after 4NQO; geometric mean where repeated; read-out: Assay b) ATR Cell IC50

SMILES	pIC50 (mTOR)	pIC50 (PI3K-α)	pIC50 (ATM kinase)	pIC50 (ATR kinase)
CO[C@@H]1CC[C@H](n2c(=O)n(C)c3cnc4cc(F)c(-c5ccc(OCCCN(C)C)nc5)cc4c32)C1 [Example 71, 8-[6-[3-(dimethylamino)propoxy]-3-pyridyl]-7-fluoro-1-[(1S,3R)-3-methoxycyclopentyl]-3-methyl-imidazo[4,5-c]quinolin-2-one]	4.82	< 4.94	8.84	< 4.52
CN(C)CCCOc1ccc(-c2ccc3ncc4c(c3c2)n([C@H]2CCCOC2)c(=O)n4C)c(F)n1 [Example 20, 8-[6-(3-dimethylaminopropoxy)-2-fluoropyridin-3-yl]-3-methyl-1-[(3S)-oxan-3-yl]imidazo[5,4-c]quinolin-2-one]	6.28	5.99	9.44	< 4.52
CN(C)CCCOc1ccc(-c2ccc3ncc4c(c3c2)n(C2(C)CCOCC2)c(=O)n4C)cn1 [Example 7, 8-[6-(3-dimethylaminopropoxy)pyridin-3-yl]-3-methyl-1-(4-methyloxan-4-yl)imidazo[5,4-c]quinolin-2-one]	6.58	6.27	9.02	4.97
CO[C@H]1C[C@@H](n2c(=O)n(C)c3cnc4ccc(-c5ccc(OCCCN(C)C)nc5)cc4c32)C1 [Example 2, 8-[6-(3-Dimethylaminopropoxy)pyridin-3-yl]-1-(cis-3-methoxycyclobutyl)-3-methylimidazo[4,5-c]quinolin-2-one]	5.93	5.75	9.60	< 4.54
CN(C)CCCOc1ccc(-c2cc3c(cc2F)ncc2c3n(C3COC3)c(=O)n2C)cn1 [Example 9, 8-[6-(3-dimethylaminopropoxy)pyridin-3-yl]-7-fluoro-3-methyl-1-(oxetan-3-yl)imidazo[5,4-c]quinolin-2-one]	< 4.67	< 4.54	8.42	< 4.52
CN(C)CCCOc1ccc(-c2ccc3ncc4[nH]c(=O)n(C5CCOCC5)c4c3c2)cn1 [Example 13, 8-[6-(3-dimethylaminopropoxy)pyridin-3-yl]-1-(oxan-4-yl)-3H-imidazo[4,5-c]quinolin-2-one]	6.61	5.82	8.49	< 4.52
Cn1c(=O)n([C@H]2CCCOC2)c2c3cc(-c4ccc(OCCCN5CCCCC5)nc4)ccc3ncc21 [Example 31, 3-methyl-1-[(3S)-oxan-3-yl]-8-[6-(3-piperidin-1-ylpropoxy)pyridin-3-yl]imidazo[5,4-c]quinolin-2-one]	4.71	< 4.96	8.96	< 4.52
CO[C@@H]1CC[C@@H](n2c(=O)n(C)c3cnc4ccc(-c5ccc(OCCCN(C)C)nc5F)cc4c32)C1 [Example 68, 8-[6-[3-(Dimethylamino)propoxy]-2-fluoro-3-pyridyl]-1-[(1R,3R)-3-methoxycyclopentyl]-3-methyl-imidazo[4,5-c]quinolin-2-one]	5.50	6.19	9.68	< 4.54
CO[C@H]1C[C@@H](n2c(=O)n(C)c3cnc4cc(F)c(-c5ccc(OCCCN(C)C)nc5)cc4c32)C1 [Example 6, 8-[6-(3-dimethylaminopropoxy)pyridin-3-yl]-7-fluoro-1-(cis-3-methoxycyclobutyl)-3-methylimidazo[4,5-c]quinolin-2-one]	< 4.77	< 4.52	8.98	< 4.52
Cn1c(=O)n(C2CCCOC2)c2c3cc(-c4ccc(OCCCN5CCC5)nc4)ccc3ncc21 (stereo in doubt) [Example 60, 8-[6-[3-(azetidin-1-yl)propoxy]-3-pyridyl]-3-methyl-1-[(3S)-tetrahydropyran-3-yl]imidazo[4,5-c]quinolin-2-one]	5.87	6.30	9.12	< 4.62
Cn1c(=O)n([C@H]2CCCOC2)c2c3cc(-c4ccc(OCCCN5CCCCC5)nc4)c(F)cc3ncc21 [Example 47, 7-Fluoro-3-methyl-8-[6-[3-(1-piperidyl)propoxy]-3-pyridyl]-1-[(3S)-tetrahydropyran-3-yl]imidazo[4,5-c]quinolin-2-one methanesulfonic acid salt]	< 4.52	< 4.63	9.10	< 4.52

Other lines, results leading:

pIC50 (mTOR)	pIC50 (PI3K-α)	pIC50 (ATM kinase)	pIC50 (ATR kinase)	SMILES
6.10	6.17	9.52	< 4.52	CN(C)CCCOc1ccc(-c2ccc3ncc4c(c3c2)n(C2CCOCC2)c(=O)n4C)c(F)n1 [Example 21, 8-[6-(3-dimethylaminopropoxy)-2-fluoropyridin-3-yl]-3-methyl-1-(oxan-4-yl)imidazo[5,4-c]quinolin-2-one]
5.98	6.21	8.98	< 4.52	Cn1c(=O)n([C@H]2C[C@@H](O)C2)c2c3cc(-c4ccc(OCCCN5CCC5)nc4)ccc3ncc21 [Example 14, 8-[6-[3-(azetidin-1-yl)propoxy]pyridin-3-yl]-1-(cis-3-hydroxycyclobutyl)-3-methylimidazo[4,5-c]quinolin-2-one]
4.85	4.74	9.11	< 4.52	CN(C)CCCOc1ccc(-c2cc3c(cc2F)ncc2c3n(C3CCOCC3)c(=O)n2C)cn1 [Example 8, 8-[6-(3-dimethylaminopropoxy)pyridin-3-yl]-7-fluoro-3-methyl-1-(oxan-4-yl)imidazo[5,4-c]quinolin-2-one]
6.67	6.49	9.60	5.36	CNCCCOc1ccc(-c2ccc3ncc4c(c3c2)n([C@H]2C[C@@H](OC)C2)c(=O)n4C)cn1 [Example 42, 1-(cis-3-methoxycyclobutyl)-3-methyl-8-[6-(3-methylaminopropoxy)pyridin-3-yl]imidazo[4,5-c]quinolin-2-one]
4.74	< 4.52	9.25	< 4.52	Cn1c(=O)n([C@H]2CCCOC2)c2c3cc(-c4ccc(OCCCN5CCCC5)nc4)c(F)cc3ncc21 [Example 23, 7-fluoro-3-methyl-8-[6-(3-pyrrolidin-1-ylpropoxy)-3-pyridyl]-1-[(3S)-tetrahydropyran-3-yl]imidazo[4,5-c]quinolin-2-one]
4.97	< 4.60	8.52	< 4.52	O=c1[nH]c2cnc3ccc(-c4ccc(OCCCN5CCCCC5)nc4)cc3c2n1C1CCOCC1 [Example 36, 1-(oxan-4-yl)-8-[6-(3-piperidin-1-ylpropoxy)pyridin-3-yl]-3H-imidazo[4,5-c]quinolin-2-one]
5.90	6.08	8.88	4.97	Cn1c(=O)n(C2CCOCC2)c2c3cc(-c4ccc(OCCCN5CCC5)nc4)ccc3ncc21 [Example 39, 8-[6-[3-(azetidin-1-yl)propoxy]pyridin-3-yl]-3-methyl-1-(oxan-4-yl)imidazo[5,4-c]quinolin-2-one]
6.44	6.48	9.82	< 4.66	CO[C@H]1CC[C@H](n2c(=O)n(C)c3cnc4ccc(-c5ccc(OCCCN(C)C)nc5)cc4c32)C1 [Example 26, 8-[6-(3-Dimethylaminopropoxy)pyridin-3-yl]-1-[(1S,3S)-3-methoxycyclopentyl]-3-methylimidazo[4,5-c]quinolin-2-one]
